The text below walks through data of US7723355B2, “7,8-dihydro-1,6-naphthyridin-5(6H)-ones and related bicyclic compounds as inhibitors of dipeptidyl peptidase IV and methods” (Bristol-Myers Squibb Company, priority 2006, dated 2010).

SMILES strings stand for the structures. Where a name gives a salt, the structure may show the parent alone.

T1 sequence (P27487 29-766 limits assumed): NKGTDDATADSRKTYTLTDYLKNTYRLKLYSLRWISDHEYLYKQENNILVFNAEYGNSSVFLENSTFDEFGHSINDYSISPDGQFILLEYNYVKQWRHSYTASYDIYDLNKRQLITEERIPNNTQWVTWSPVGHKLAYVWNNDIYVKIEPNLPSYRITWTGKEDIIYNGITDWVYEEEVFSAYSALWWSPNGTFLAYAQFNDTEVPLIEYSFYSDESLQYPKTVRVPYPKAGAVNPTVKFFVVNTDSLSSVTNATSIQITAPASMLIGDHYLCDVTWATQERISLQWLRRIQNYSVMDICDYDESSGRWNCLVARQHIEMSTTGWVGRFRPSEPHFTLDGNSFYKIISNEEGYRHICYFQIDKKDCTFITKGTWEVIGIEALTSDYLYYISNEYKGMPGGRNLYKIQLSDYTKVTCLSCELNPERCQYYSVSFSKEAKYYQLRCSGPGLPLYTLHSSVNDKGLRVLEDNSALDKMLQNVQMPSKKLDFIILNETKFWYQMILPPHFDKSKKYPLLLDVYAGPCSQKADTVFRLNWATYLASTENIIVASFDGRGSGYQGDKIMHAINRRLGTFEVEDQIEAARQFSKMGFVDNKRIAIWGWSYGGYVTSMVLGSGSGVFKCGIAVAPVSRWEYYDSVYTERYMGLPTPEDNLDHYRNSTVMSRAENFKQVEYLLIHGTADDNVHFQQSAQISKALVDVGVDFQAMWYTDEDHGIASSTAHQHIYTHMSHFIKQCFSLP

This assay has as its target T1, human DPP-4 (Homo sapiens, UniProt P27487).
T1 construct: during isolation the entire transmembrane domain (including His tag) is removed by proteases present in the CHO cells; His tag (enterokinase-cleavable, from pcDNA4/HisMax) (N, cleaved yes); made in house
The assay can be described thus: DPP-4 inhibition assay (cleavage of pseudosubstrate Gly-Pro-pNA, absorbance at 405 nm). It is filed as biochemical. Particulars: recombinant human DPP-4, steady state, Gly-Pro-pNA 120 or 1000 μM, pH 7.4, 40 min preincubation; IC50 converted to Ki assuming competitive inhibition; read-out: DPP4 Ki. As for the experimental part:
DPP-4 inhibitory activity of the compounds of the present invention may be determined by use of an in vitro assay system which measures the degree in inhibition of DPP-4-mediated cleavage of an appropriate substrate or pseudo-substrate. Inhibition constants (Ki values) for the DPP-4 inhibitors of the invention may be determined by the method described in the experimental section below.
To generate human DPP-4, PCR (Red-tag polymerase, Sigma) was performed on Human cDNA from placenta (Clontech) using two primers, […] (SEQ ID NO:1) and […] (SEQ ID NO:2), based on the nucleotide sequence of the human clone (accession number M74777). PCR products were cloned into the pcDN4/HisMax TOPO vector (Invitrogene). For stable transfection of CHO-DG44 cells, DPP4 was rePCRed using primers […] (SEQ ID NO:3) and […] (SEQ ID NO:4) to generate KpnI and XhoI sites. The KpnI and XhoI sites were used to extract the N-terminal His tagged gene. The His tag, which could be cleaved and removed by Enterokinase, was included to allow purification using the TALON affinity column. The gene was then ligated into the KpnI and XhoI sites of the pD16 vector for stable transfection. Stable cell lines were generated by transfecting the expression vector into Chinese hamster ovary (CHO-DG44) cells using electroporation. The CHO-DG44 cell line was grown in PFCHO media supplemented with HT (glycine, hypoxanthine and thymidine, Invitrogene), glutamine and Recombulin (ICN). Then 1×10^7 cells/ml were collected, transfected with 60 μg of DNA using electroporation at 300V, and then transferred to a T75 flask. On the third day following transfection, the HT supplement was removed and selection was initiated with methotrexate (MTX, 10 nM, ICN). After a further 10 days the cells were plated into individual wells of 96 well plates. Every 10 days the concentration of MTX was increased two to three fold, up to a maximum of 400 nM. Final stable cell line selection was based on yield and activity of the expressed protein.
An attempt to purify recombinant DPP-4 using Talon resin was not efficient, resulting in small yields, with most of the DPP activity passing through the column. Therefore, protein was further purified using conventional anion exchange (Sepharose Q), gel filtration (S-200) and high resolution MonoQ columns. The final protein yielded a single band on SDS-PAGE gels. Amino acid sequence analysis indicated two populations of DPP-4 in the sample. One portion of the protein had 27 amino acids truncated from the N-terminus, while the other was lacking the N-terminal 37 amino acids. […] Total protein concentration was measured using the Bradford dye method and the amount of the active DPP-4 was determined by titrating the enzyme with a previously characterized inhibitor (Ki=0.4 nM).
Inhibition of human DPP-4 activity was measured under steady-state conditions by following the absorbance increase at 405 nm upon the cleavage of the pseudosubstrate, Gly-Pro-pNA. Assays were performed in 96-well plates using a Thermomax plate reader. […] To ensure steady-state conditions for slow-binding inhibitors, enzyme was preincubated with the compound for 40 minutes prior to substrate addition, to initiate the reaction.
Inhibitor potency was evaluated by fitting inhibition data to the binding isotherm:
[formula] where vi is the initial reaction velocity at different concentrations of inhibitor I; v is the control velocity in the absence of inhibitor, range is the difference between the uninhibited velocity and background; background is the rate of spontaneous substrate hydrolysis in the absent of enzyme, n is the Hill coefficient.
Calculated IC50s at each substrate concentration were converted to Ki assuming competitive inhibition according to:
All inhibitors were competitive as judged by a very good agreement of Ki values obtained from the assays at high and low substrate concentrations. […]
For orientation: Ki means a measure of affinity in units of concentration, obtained from inhibition or displacement. For `Cc1nc2c(c(-c3ccc(Cl)cc3Cl)c1CN)C(=O)N(CC(=O)N(C)C)CC2` (single isomer, unassigned) [Example 2, TFA salt], the inhibitory constant (Ki) was determined as 2.01 nM.
For `Cc1nc2c(c(-c3ccc(Cl)cc3Cl)c1CN)C(=O)N(CCO)CC2` [Example 16, 3-(Aminomethyl)-4-(2,4-dichlorophenyl)-6-(2-hydroxyethyl)-2-methyl-7,8-dihydro-1,6-naphthyridin-5(6H)-one TFA salt], the Ki worked out at 18 nM.
For `Cc1nc2c(c(-c3ccc(Cl)cc3Cl)c1CN)C(=O)N(CC(=O)N1CCCC1)CC2` [Example 9, (S)-3-(Aminomethyl)-4-(2,4-dichlorophenyl)-2-methyl-6-(2-oxo-2-(pyrrolidin-1-yl)ethyl)-7,8-dihydro-1,6-naphthyridin-5(6H)-one TFA salt] the value was 3.5 nM; for `Cc1nc2c(c(-c3ccc(Cl)cc3Cl)c1CN)C(=O)N(C[C@@H]1CCCO1)CC2` [Example 14, 3-(Aminomethyl)-4-(2,4-dichlorophenyl)-2-methyl-6-(((S)-tetrahydrofuran-2-yl)methyl)-7,8-dihydro-1,6-naphthyridin-5(6H)-one TFA salt], 5.91 nM.
Then `CCN(CC)C(=O)CN1CCc2nc(C)c(CN)c(-c3ccc(Cl)cc3Cl)c2C1=O` [Example 8, (S)-2-(3-(Aminomethyl)-4-(2,4-dichlorophenyl)-2-methyl-5-oxo-7,8-dihydro-1,6-naphthyridin-6(5H)-yl)-N,N-diethylacetamide TFA salt], with 3.82 nM.
Then `Cc1nc2c(c(-c3ccc(Cl)cc3Cl)c1CN)C(=O)NCC2` [Example 1, 3-(Aminomethyl)-4-(2,4-dichlorophenyl)-2-methyl-7,8-dihydro-1,6-naphthyridin-5(6H)-one HCl salt], with 6.9 nM; and `Cc1nc2c(c(-c3ccc(Cl)cc3Cl)c1CN)C(=O)N(CC(=O)N1CCC(N3CCCCC3=O)CC1)CC2` [Example 11, (S)-3-(Aminomethyl)-4-(2,4-dichlorophenyl)-2-methyl-6-(2-oxo-2-(2-oxo-1,4′-bipiperidin-1′-yl)ethyl)-7,8-dihydro-1,6-naphthyridin-5(6H)-one TFA salt], with 49.2 nM.
For `Cc1nc2c(c(-c3ccc(Cl)cc3Cl)c1CN)C(=O)NC(=O)C2` [Example 19, 3-(Aminomethyl)-4-(2,4-dichlorophenyl)-2-methyl-1,6-naphthyridine-5,7(6H,8H)-dione TFA Salt], the Ki amounted to 9.35 nM.
For `Cc1nc2c(c(-c3ccc(Cl)cc3Cl)c1CN)C(=O)N(c1ccccc1)CC2` [Example 17, 3-(Aminomethyl)-4-(2,4-dichlorophenyl)-2-methyl-6-phenyl-7,8-dihydro-1,6-naphthyridin-5(6H)-one TFA salt] the value was 5 nM; for `COCCN1CCc2nc(C)c(CN)c(-c3ccc(Cl)cc3Cl)c2C1=O` [Example 15, 3-(Aminomethyl)-4-(2,4-dichlorophenyl)-6-(2-methoxyethyl)-2-methyl-7,8-dihydro-1,6-naphthyridin-5(6H)-one TFA salt], 5.39 nM; for `COc1ccccc1N1CCc2nc(C)c(CN)c(-c3ccc(Cl)cc3Cl)c2C1=O` [Example 18, 3-(Aminomethyl)-4-(2,4-dichlorophenyl)-6-(2-methoxyphenyl)-2-methyl-7,8-dihydro-1,6-naphthyridin-5(6H)-one TFA Salt], 2.28 nM.
Turning to `Cc1nc2c(c(-c3ccc(Cl)cc3Cl)c1CN)C(=O)N(CC(=O)N(C)C)CC2` (single isomer, unassigned) [Example 4, TFA salt], the Ki turned out to be 39.7 nM.
In the case of `Cc1nc2c(c(-c3ccc(Cl)cc3Cl)c1CN)C(=O)N(CC(=O)N1CCOCC1)CC2` [Example 12, (S)-3-(Aminomethyl)-4-(2,4-dichlorophenyl)-2-methyl-6-(2-morpholino-2-oxoethyl)-7,8-dihydro-1,6-naphthyridin-5(6H)-one TFA salt], the inhibition constant (Ki) worked out at 4.43 nM.
For `Cc1nc2c(c(-c3ccc(Cl)cc3Cl)c1CN)C(=O)N(CC(N)=O)CC2` [Example 6, (S)-2-(3-(Aminomethyl)-4-(2,4-dichlorophenyl)-2-methyl-5-oxo-7,8-dihydro-1,6-naphthyridin-6(5H)-yl)acetamide TFA salt] the value was 3.44 nM; for `Cc1nc2c(c(-c3ccc(Cl)cc3Cl)c1CN)C(=O)N(CC(=O)N1CCCCC1)CC2` [Example 10, (S)-3-(Aminomethyl)-4-(2,4-dichlorophenyl)-2-methyl-6-(2-oxo-2-(piperidin-1-yl)ethyl)-7,8-dihydro-1,6-naphthyridin-5(6H)-one TFA salt], 3.87 nM; for `Cc1nc2c(c(-c3ccccc3Cl)c1CN)C(=O)N(CC(=O)N(C)C)CC2` (single isomer, unassigned) [Example 5, TFA Salt], over 100 nM.
For `Cc1nc2c(c(-c3ccccc3Cl)c1CN)C(=O)N(CC(=O)N(C)C)CC2` (single isomer, unassigned) [Example 3, TFA salt] the value was 37.8 nM; for `Cc1nc2c(c(-c3ccc(Cl)cc3Cl)c1CN)C(=O)N(C)CC2` [Example 13, 3-(Aminomethyl)-4-(2,4-dichlorophenyl)-2,6-dimethyl-7,8-dihydro-1,6-naphthyridin-5(6H)-one TFA salt], 7.72 nM.
